Results reported in PubChem BioAssay AID330 (DTP/NCI, 2004).
“And” between values parts separate entries of the source, which are not always exact repeats. Equal values may be shown once. Inconclusive results and toxic doses are left out. Rule for the calls: active = survival T/C of 150% or more; inactive = T/C below 125% in these data.

Test system: P388 leukemia ip, CD2F1 mice, survival T/C
Experiment: NCI In Vivo Anticancer Drug Screen. Data for tumor model P388 Leukemia (intraperitoneal) in CD2F1 (CDF1) mice
Conditions: endpoint: median survival time, higher = longer survival
Outline: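 Mice carrying the transplanted tumor received test compound or vehicle. Survival was recorded in each group, and the value is the treated-group measurement divided by that of the vehicle-treated control group.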

[1] = dose: 50.0 mg/kg/injection, schedule: Q01DX005 (ip), vehicle: saline with Tween-80
[2] = dose: 100.0 mg/kg/injection, schedule: Q01DX005 (ip), vehicle: saline with Tween-80
[3] = dose: 200.0 mg/kg/injection, schedule: Q01DX005 (ip), vehicle: saline with Tween-80
[4] = dose: 50.0 mg/kg/injection, schedule: Q01DX005 (ip), vehicle: Klucel (hydroxypropylcellulose) (HPC)
[5] = dose: 100.0 mg/kg/injection, schedule: Q01DX005 (ip), vehicle: Klucel (hydroxypropylcellulose) (HPC)
[6] = dose: 200.0 mg/kg/injection, schedule: Q01DX005 (ip), vehicle: Klucel (hydroxypropylcellulose) (HPC)
[7] = dose: 100.0 mg/kg/injection, schedule: Q04DX003 (ip), vehicle: saline
[8] = dose: 200.0 mg/kg/injection, schedule: Q04DX003 (ip), vehicle: saline
[9] = dose: 400.0 mg/kg/injection, schedule: Q04DX003 (ip), vehicle: saline
[10] = dose: 400.0 mg/kg/injection, schedule: Q04DX002 (ip), vehicle: saline

Measured: T/C

CCCc1nc(NC(=O)c2ccccc2)nc(NC(=O)c2ccccc2)n1
inactive: [1] 102 % of control | [2] 106 % of control | [3] 106 % of control

COC(=O)c1csccc1=O
inactive: [4] 112 % of control | [5] 97 % of control | [6] 95 % of control

O=C(O)c1cccc(C(=O)O)c1S(=O)Cc1ccccc1 (configuration not stated)
inactive: [1] 102 % of control | [2] 93 % of control | [3] 105 % of control

COC(=O)CC1(O)C=CC(=O)c2ccccc21 (configuration not stated)
inactive: dose: 12.5 mg/kg/injection, schedule: Q01DX005 (ip), vehicle: saline with Tween-80 94 % of control | dose: 25.0 mg/kg/injection, schedule: Q01DX005 (ip), vehicle: saline with Tween-80 100 % of control | [1] 109 % of control | [2] 112 % of control

CCCNNC(=O)c1ccncc1
inactive: [1] 100 % of control | [2] 96 % of control | [3] 105 % of control

CCOC(=O)NC(Cc1cc(OC)c(OC)cc1Br)c1ccc(OC)c(OC)c1OC (configuration not stated)
inactive: dose: 100.0 mg/kg/injection, schedule: Q01DX001 (ip), vehicle: saline with Tween-80 91 % of control | dose: 200.0 mg/kg/injection, schedule: Q01DX001 (ip), vehicle: saline with Tween-80 94 % of control | dose: 400.0 mg/kg/injection, schedule: Q01DX001 (ip), vehicle: saline with Tween-80 91 % of control

C[C@]12C=CC(=O)C=C1CC[C@H]1[C@@H]3C[C@@H](O)[C@](O)(C(=O)CO)[C@@]3(C)C[C@H](O)[C@@]12F
inactive: dose: 100.0 mg/kg/injection, schedule: Q04DX003 (ip), vehicle: Klucel (hydroxypropylcellulose) (HPC) 100 % of control | dose: 200.0 mg/kg/injection, schedule: Q04DX003 (ip), vehicle: Klucel (hydroxypropylcellulose) (HPC) 90 % of control

COC(=O)/C=C1\C(=O)OCC1(C)C
inactive: [7] 100 % of control | [8] 104 % of control | [9] 103 % of control

CN(C)c1ccc(C2OC(=N)C(=S)N2C)cc1 (configuration not stated)
inactive: dose: 60.0 mg/kg/injection, schedule: Q01DX005 (ip), vehicle: Klucel (hydroxypropylcellulose) (HPC) 112 % of control | dose: 120.0 mg/kg/injection, schedule: Q01DX005 (ip), vehicle: Klucel (hydroxypropylcellulose) (HPC) 109 % of control | dose: 240.0 mg/kg/injection, schedule: Q01DX005 (ip), vehicle: Klucel (hydroxypropylcellulose) (HPC) 109 % of control

CC(C)([CH2][Sn]([CH3])([Cl])[Cl])c1ccccc1
inactive: dose: 0.79 mg/kg/injection, schedule: Q04DX003 (ip), vehicle: saline with Tween-80 99 % of control and 101 % of control | dose: 1.56 mg/kg/injection, schedule: Q04DX003 (ip), vehicle: saline with Tween-80 99 % of control and 116 % of control and 98 % of control | dose: 3.12 mg/kg/injection, schedule: Q04DX003 (ip), vehicle: saline with Tween-80 102 % of control and 111 % of control and 95 % of control | dose: 6.25 mg/kg/injection, schedule: Q04DX003 (ip), vehicle: saline with Tween-80 104 % of control and 97 % of control and 98 % of control | dose: 6.25 mg/kg/injection, schedule: Q04DX003 (ip), vehicle: saline 106 % of control

NC(=O)NN1CC(=O)N(c2ccccc2)CC1=O
inactive: dose: 50.0 mg/kg/injection, schedule: Q01DX009 (ip), vehicle: saline with Tween-80 97 % of control | dose: 100.0 mg/kg/injection, schedule: Q01DX009 (ip), vehicle: saline with Tween-80 100 % of control | dose: 200.0 mg/kg/injection, schedule: Q01DX009 (ip), vehicle: saline with Tween-80 95 % of control

C=CCC(C)/C(=N\[N+](C)(C)C)c1ccccc1 (configuration not stated)
inactive: dose: 12.5 mg/kg/injection, schedule: Q01DX001 (ip), vehicle: saline 100 % of control | dose: 25.0 mg/kg/injection, schedule: Q01DX001 (ip), vehicle: saline 106 % of control | dose: 50.0 mg/kg/injection, schedule: Q01DX001 (ip), vehicle: saline 99 % of control

Fc1ccc2[nH]c3c(c2c1)-c1ncncc1CC3
inactive: [4] 101 % of control | [5] 100 % of control | [6] 101 % of control

Cc1ccc2c(c1)CCCN2C=O
inactive: dose: 50.0 mg/kg/injection, schedule: Q04DX003 (ip), vehicle: saline with Tween-80 105 % of control | dose: 100.0 mg/kg/injection, schedule: Q04DX003 (ip), vehicle: saline with Tween-80 100 % of control | dose: 200.0 mg/kg/injection, schedule: Q04DX003 (ip), vehicle: saline with Tween-80 110 % of control

C/C(=N\NC(=S)N1CCN(c2ccccn2)CC1)c1ccccn1
inactive: dose: 12.5 mg/kg/injection, schedule: Q01DX005 (ip), vehicle: water 103 % of control | dose: 25.0 mg/kg/injection, schedule: Q01DX005 (ip), vehicle: water 108 % of control

CCOC(=N)N1[C@@H]2CCCC[C@@H]21
inactive: dose: 100.0 mg/kg/injection, schedule: Q04DX002 (ip), vehicle: saline 101 % of control | dose: 200.0 mg/kg/injection, schedule: Q04DX002 (ip), vehicle: saline 109 % of control | [10] 120 % of control

CN1CCc2c(c3ccccc3c3ccccc23)C1
inactive: dose: 0.09 mg/kg/injection, schedule: Q01DX009 (ip), vehicle: Klucel (hydroxypropylcellulose) (HPC) 99 % of control | dose: 0.19 mg/kg/injection, schedule: Q01DX009 (ip), vehicle: Klucel (hydroxypropylcellulose) (HPC) 107 % of control | dose: 0.39 mg/kg/injection, schedule: Q01DX009 (ip), vehicle: Klucel (hydroxypropylcellulose) (HPC) 104 % of control | dose: 0.78 mg/kg/injection, schedule: Q01DX009 (ip), vehicle: Klucel (hydroxypropylcellulose) (HPC) 102 % of control | dose: 1.56 mg/kg/injection, schedule: Q01DX009 (ip), vehicle: Klucel (hydroxypropylcellulose) (HPC) 104 % of control and 91 % of control | dose: 3.12 mg/kg/injection, schedule: Q01DX009 (ip), vehicle: Klucel (hydroxypropylcellulose) (HPC) 94 % of control | dose: 6.25 mg/kg/injection, schedule: Q01DX009 (ip), vehicle: Klucel (hydroxypropylcellulose) (HPC) 86 % of control and 96 % of control | dose: 12.5 mg/kg/injection, schedule: Q01DX009 (ip), vehicle: Klucel (hydroxypropylcellulose) (HPC) 104 % of control | dose: 25.0 mg/kg/injection, schedule: Q01DX009 (ip), vehicle: Klucel (hydroxypropylcellulose) (HPC) 113 % of control and 92 % of control | dose: 50.0 mg/kg/injection, schedule: Q01DX009 (ip), vehicle: Klucel (hydroxypropylcellulose) (HPC) 105 % of control

COC(=O)C1=C(C(=O)OC)P2(C)(C)ON(c3ccccc3)C(C(=O)c3ccccc3)N2C1(c1ccccc1)c1ccccc1 (configuration not stated)
inactive: [4] 100 % of control | [5] 93 % of control | [6] 98 % of control

O=C1C2CCCC1C(c1ccccc1Cl)NC2c1ccccc1Cl (configuration not stated)
inactive: [7] 89 % of control | [8] 96 % of control | [9] 94 % of control

C/C(=N\N1CN(C(C)C(=O)O)P(Nc2ncn[nH]2)N=C1N)c1cccs1 (configuration not stated)
inactive: dose: 7.5 mg/kg/injection, schedule: Q01DX005 (ip), vehicle: saline with Tween-80 96 % of control | dose: 15.0 mg/kg/injection, schedule: Q01DX005 (ip), vehicle: saline with Tween-80 103 % of control | dose: 30.0 mg/kg/injection, schedule: Q01DX005 (ip), vehicle: saline with Tween-80 106 % of control

CC(=O)Nc1ccc(/C=N/NC(=O)CC2CCCCC2)cc1
inactive: dose: 60.0 mg/kg/injection, schedule: Q01DX005 (ip), vehicle: saline with Tween-80 96 % of control | dose: 120.0 mg/kg/injection, schedule: Q01DX005 (ip), vehicle: saline with Tween-80 100 % of control | dose: 240.0 mg/kg/injection, schedule: Q01DX005 (ip), vehicle: saline with Tween-80 91 % of control

CCOC(=O)CNC(=O)OCCS(=O)CCOC(=O)NCC(=O)OCC
inactive: dose: 100.0 mg/kg/injection, schedule: Q01DX001 (ip), vehicle: saline 98 % of control | dose: 200.0 mg/kg/injection, schedule: Q01DX001 (ip), vehicle: saline 93 % of control | dose: 400.0 mg/kg/injection, schedule: Q01DX001 (ip), vehicle: saline 101 % of control

CC12C3=CC=C4C=CC=C(c5ccccc5C1=CC=C3)C42C (configuration not stated)
inactive: dose: 50.0 mg/kg/injection, schedule: Q04DX002 (ip), vehicle: Klucel (hydroxypropylcellulose) (HPC) 100 % of control | dose: 100.0 mg/kg/injection, schedule: Q04DX002 (ip), vehicle: Klucel (hydroxypropylcellulose) (HPC) 111 % of control | dose: 200.0 mg/kg/injection, schedule: Q04DX002 (ip), vehicle: Klucel (hydroxypropylcellulose) (HPC) 107 % of control

NNc1nn2cnnc2c2ccccc12
inactive: dose: 6.25 mg/kg/injection, schedule: Q04DX002 (ip), vehicle: saline 100 % of control and 96 % of control | dose: 12.5 mg/kg/injection, schedule: Q04DX002 (ip), vehicle: saline 98 % of control and 99 % of control and 96 % of control | dose: 25.0 mg/kg/injection, schedule: Q04DX002 (ip), vehicle: saline 100 % of control and 122 % of control and 97 % of control | dose: 50.0 mg/kg/injection, schedule: Q04DX002 (ip), vehicle: saline 101 % of control and 104 % of control and 94 % of control | [10] 88 % of control
